{"source": "patent US20120196766A1", "about": "“Therapeutic Use of Farnesyltransferase Inhibitors and Methods of Monitoring the Efficacy Thereof” (priority 2004, published 2012)", "key": {"THP-1 cells [1]": {"test_system": "THP-1 cells", "assay": "LPS-induced cytokine, chemokine and MMP-9 secretion by THP-1 cells (ELISA)", "format": "cell-based, Human", "procedure": "THP-1 cells were cultured in RPMI1640 medium, supplemented with 10% FBS/100 units/ml Penicillin/10 μg/ml Streptomycin at 37° C., under 5% CO2. […] For the untreated control group (no LPS, no compound) and LPS alone group, equivalent volumes of DMSO were added to the medium. Cells were cultured at 37° C. and pellets were collected at 0 hr, 1 hr, 3 hr, 6 hr, 12 hr & 24 hr. Cell pellets were stored at −80° C. if RNA isolation was not conducted immediately. For experiments to study cytokine secretion in culture supernatants, THP-1 cells were washed twice with PBS, resuspended at 3.4×10^5/ml and cultured in 96-well plates at 250 μL, per well at 37° C. […] Supernatants were collected at different time points as indicated in the figures and were kept at ≦−20° C. until analysis of cytokine production.\n(§1) Human IL-6, IL18, IL1β, MCP-1, MMP-9, and mouse IL-6, IL18, TNFα, MCP-1 and IL-1β were measured with ELISA kits (R&D Systems) according to the manufacturer's instructions.\n(§2) Samples were tested for cytokines using the Bio-plex cytokine assay kit (Bio-Rad Laboratories, Inc.) according to the manufacturer's instructions. Briefly, 50 μL anti-cytokine antibody conjugated beads were added to wells of a filter plate pre-equilibrated with assay buffer. The beads were washed, then 50 μL of undiluted cell culture supernatant or 4-fold diluted plasma samples were added and incubated for 2 hours. Biotinylated anti-cytokine antibody (25 μL) was added to each well and the plate was incubated with shaking for 1.5 hours. Streptavidin-PE (50 μL) was added to each well and the plate was incubated with shaking for 45 min. between incubations, wells were washed 3 times with 100 μL wash buffer and unbound analytes were filtered using a vacuum manifold. Following the last wash step, 125 μL of assay buffer was added to each well and the plate was placed on a shaker for 10 min. The plate was read on a Luminex^100 instrument (Luminex Corporation, Austin, Tex.) according to the manufacturer's instructions. The concentration of cytokine was determined from a standard curve assayed at the same time."}, "THP-1 cells [2]": {"test_system": "THP-1 cells", "assay": "Inhibition of LPS-induced IL-6 release in THP-1 cells, concentration series", "format": "cell-based", "conditions": "Homo sapiens, 100 ng/ml LPS, 0.5% FBS, supernatants at 48 hr, read-out: IC50 for inhibition of LPS-induced IL-6 secretion", "procedure": "(§3) THP-1 cells at 3.4×10^5/ml were cultured in 96-well plates in 0.5% FBS/RPMI 1640, in the absence or presence of 100 ng/ml LPS, plus or minus tipifarnib (starting from 5 μM, followed by 3-fold series dilution). The concentrations of tipifarnib were: 5 μM, 1.67 μM, 0.56 μM, 0.19 μM and 0.06 μM. Supernatants were collected at 48 hr. IL6 was quantified using ELISA kit from R&D Systems.\nas §3, with “Medium components were certified to contain less than 0.3 endotoxin units/ml. THP-1” for “THP-1”, “LPS” for “LPS,”, “tested” for “quantified”"}, "BALB/c mice": {"test_system": "BALB/c mice", "assay": "LPS-induced cytokine production in vivo (murine model of LPS-induced inflammation)", "conditions": "for inhibition at 50 mg/kg: Mus musculus; for MCP-1 production: tipifarnib", "procedure": "The experiments were performed on female BALB/c mice (6-7 week old; Charles River Laboratories, Inc. MA). […] The control mice received the vehicle (20% cyclodextran) only. 20 μg LPS (Sigma), diluted in PBS, was injected into each mouse intraperitoneally. Blood samples were collected either by eye bleeding or cardiac puncture at 1 and 2 hours after LPS injection in one experiment, and at 2 and 3 hours after LPS injection in a second experiment. Plasma samples were collected by centrifugation, and stored at ≦−20° C. before being tested for cytokines using individual ELISA kits or Luminex analysis (see below).\nas §1, §2"}, "THP-1 cells [3]": {"test_system": "THP-1 cells", "assay": "Western blot analysis of LPS, TNF-α and IL-1α induced signaling in THP-1 cells", "format": "cell-based, Human", "procedure": "THP-1 cells in 0.5% FBS/RPMI were pre-treated with or without tipifarnib for 18 hours, and subsequently stimulated with LPS (100 ng/ml), TNF-α (10 ng/ml) or IL-1α (5 ng/ml) for 30 minutes. Cells were harvested, washed three times in ice-cold PBS, and lysed in lysis buffer (20 mM Tris (pH 7.5), 150 mM NaCl, 1 mM EDTA, 1 mM EGTA, 1% Triton X-100, 2.5 mM sodium pyrophosphate, 1 mM ([…], 1 mM Na3VO4, 1 μg/ml Leupeptin, 1 mM PMSF). Cell lysates from each sample were mixed with an equal amount of 2× SDS-PAGE sample buffer (Invitrogen), and proteins were separated by electrophoresis in Tris-glycine 10-20% gradient gels (Novex), and transferred to nitrocellulose membranes (PROTRAN; Schleicher & Schuell). The membranes were blocked with 3% BSA in PBS-0.05% Tween-20, and sequentially incubated with primary antibodies and HRP-conjugated secondary antibodies (anti-rabbit IgG or anti-mouse IgG and IgM; PIERCE), followed by ECL detection (Amersham Biosciences). The primary antibodies used were rabbit polyclonal anti-IκBa, and -p38 (Santa Cruz), mouse monoclonal anti-H-Ras (Chemicon), mouse monoclonal anti-phospho-p38 and rabbit polyclonal anti-phospho-Erk (Cell Signaling Technology)."}, "[4]": {"test_system": "dextran sodium sulphate-induced colitis", "conditions": "WO 02/43733; cited from earlier work"}, "[5]": {"conditions": "second experiment, 3 hours (results not shown)"}}, "note": "pIC50: −log10 of the molar value. Where two headings read alike, the source gives them in different places.", "data": [{"compound": "Cn1cncc1C(N)(c1ccc(Cl)cc1)c1ccc2c(c1)c(-c1cccc(Cl)c1)cc(=O)n2C", "note": "(single isomer, unassigned; (+)) [tipifarnib, (+)-6-[amino(4-chlorophenyl)(1-methyl-1H-imidazol-5-yl)methyl]-4-(3-chlorophenyl)-1-methyl-2(1H)-quinolinone]", "values": [{"measurement": "LPS-induced TNF-α production, second phase of induction", "setting": "THP-1 cells [1]; after 22 h up to 48 hours", "result": "dose-dependent inhibition"}, {"measurement": "LPS-induced TNF-α production, initial peak", "setting": "THP-1 cells [1]; between 5 and 10 hours", "result": "unaffected"}, {"measurement": "LPS-induced IL-8 production", "setting": "THP-1 cells [1]; simvastatin 5 and 10 μM or tipifarnib 2 and 5 μM, 22, 30 and 48 hours", "result": "no significant inhibition of IL-8 production, except for 5 μM at 22 hours"}, {"measurement": "LPS-induced MMP-9 secretion", "setting": "THP-1 cells [1]; simvastatin 5 and 10 μM or tipifarnib 2 and 5 μM, 30 and 48 hours", "result": "dose-dependently inhibited"}, {"measurement": "extent of inhibition of MCP-1 secretion compared with 10 μM simvastatin", "setting": "THP-1 cells [1]; tipifarnib 2 μM", "result": "much greater"}, {"measurement": "LPS-induced TNF-α production, second phase of induction", "setting": "THP-1 cells [1]; tipifarnib 5 μM", "result": "totally inhibited"}, {"measurement": "IL-1β secretion", "setting": "THP-1 cells [1]; tipifarnib 2 and 5 μM", "result": "dose-dependent inhibition"}, {"measurement": "inhibition of IL-6 release", "setting": "THP-1 cells [1]; tipifarnib 2 and 5 μM", "result": "inhibition was observed at all time points"}, {"measurement": "MCP-1 secretion", "setting": "THP-1 cells [1]; tipifarnib 2 and 5 μM, up to 48 hours", "result": "dose-dependent inhibition"}, {"measurement": "pIC50", "setting": "THP-1 cells [2]", "result": "~6.00"}, {"measurement": "LPS-induced TNF-α production", "setting": "BALB/c mice; 50 mg/kg oral 24, 17 and 1 hour before LPS 20 μg i.p., plasma at 1 and 2 hours", "result": "highly significant inhibition"}, {"measurement": "inhibition at 50 mg/kg", "setting": "BALB/c mice; 50 mg/kg oral before LPS, 2 hours, first experiment, read-out: inhibition of MIP-1α production", "result": "~50", "unit": "%"}, {"measurement": "inhibition at 50 mg/kg", "setting": "BALB/c mice; tipifarnib 50 mg/kg oral before LPS, after 3 hours, read-out: inhibition of IL-6 production", "result": "~50", "unit": "%"}, {"measurement": "LPS-induced IL-8", "setting": "BALB/c mice; results not shown", "result": "No effects"}, {"measurement": "LPS-induced RANTES", "setting": "BALB/c mice; results not shown", "result": "No effects"}, {"measurement": "IL12-p40 induction by LPS", "setting": "BALB/c mice; [5]", "result": "inhibited"}, {"measurement": "IL12-p70 induction by LPS", "setting": "BALB/c mice; [5]", "result": "inhibited"}, {"measurement": "IL-1β production", "setting": "BALB/c mice; tipifarnib 50 mg/kg oral before LPS, after 3 hours", "result": "almost complete inhibition"}, {"measurement": "MCP-1 production", "setting": "BALB/c mice; 2 hours", "result": "significant inhibition"}, {"measurement": "MCP-1 production", "setting": "BALB/c mice; 3 hours", "result": "a decrease that did not reach statistical significance"}, {"measurement": "IκB degradation induced by IL-1α", "setting": "THP-1 cells [3]; 2 μM tipifarnib for 18 hours", "result": "no inhibition"}, {"measurement": "IκB degradation induced by TNF-α", "setting": "THP-1 cells [3]; 2 μM tipifarnib for 18 hours", "result": "no inhibition"}, {"measurement": "LPS-induced IκB degradation", "setting": "THP-1 cells [3]; 2 μM tipifarnib for 18 hours", "result": "significantly inhibited"}, {"measurement": "LPS-induced p38 phosphorylation", "setting": "THP-1 cells [3]; 2 μM tipifarnib for 18 hours", "result": "partially reduced"}, {"measurement": "P38 protein expression", "setting": "THP-1 cells [3]; 2 μM tipifarnib for 18 hours", "result": "not affected"}, {"measurement": "TNF-α induced p38 phosphorylation", "setting": "THP-1 cells [3]; 2 μM tipifarnib for 18 hours", "result": "No significant inhibition"}, {"measurement": "H-Ras farnesylation", "setting": "THP-1 cells [3]; tipifarnib pre-treatment, all treatment groups", "result": "partially inhibited"}, {"measurement": "ERK phosphorylation", "setting": "THP-1 cells [3]; tipifarnib pre-treatment, control and stimulated cells", "result": "reduced"}, {"measurement": "disease scores", "setting": "[4]", "result": "reduction of disease scores"}]}]}
